Target: T1, FPRL-1 (Homo sapiens, UniProt P25090)
T1 construct: expressed in transfected cells
T1 sequence (P25090 1-351): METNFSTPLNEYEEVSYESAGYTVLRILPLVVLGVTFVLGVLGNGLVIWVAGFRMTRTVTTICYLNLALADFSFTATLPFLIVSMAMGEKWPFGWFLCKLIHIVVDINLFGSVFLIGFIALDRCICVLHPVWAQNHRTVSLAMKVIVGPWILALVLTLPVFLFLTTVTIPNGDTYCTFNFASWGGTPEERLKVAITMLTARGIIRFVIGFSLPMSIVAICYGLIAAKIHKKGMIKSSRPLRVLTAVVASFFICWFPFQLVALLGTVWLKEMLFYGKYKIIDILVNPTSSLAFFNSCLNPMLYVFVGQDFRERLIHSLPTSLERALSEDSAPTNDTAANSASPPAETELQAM
Test: Compound-induced calcium activity on FLIPR Tetra in CHO-Gα16 cells stably expressing FPRL1
Type: cell-based
Conditions: for Emax: efficacy, read-out: FPRL-1 Ga16-CHO (eff %); for EC50: tested 0.61 to 10,000 nM, read-out: FPRL-1 Ga16-CHO EC50
Protocol: CHO-Gα16 cells stably expressing FPRL1 were cultured in (F12, 10% FBS, 1% PSA, 400 μg/ml geneticin and 50 μg/ml hygromycin) and HEK-Gqi5 cells stable expressing FPR1 were cultured in (DMEM high glucose, 10% FBS, 1% PSA, 400 μg/ml geneticin and 50 μg/ml hygromycin). In general, the day before the experiment, 18,000 cells/well were plated in a 384-well clear bottom poly-d-lysine coated plate. The following day the screening compound-induced calcium activity was assayed on the FLIPR^Tetra. The drug plates were prepared in 384-well microplates using the EP3 and the MultiPROBE robotic liquid handling systems. Compounds were tested at concentrations ranging from 0.61 to 10,000 nM. Results are expressed as EC50 (nM) and efficacy values.

| Compound | Emax | EC50 |
| --- | --- | --- |
| O=C(Nc1ccc(Br)cc1)c1ccc2ccccc2c1C(=O)O [Compound 11, 2-{[(4-Bromophenyl)amino]carbonyl}-1-naphthoic acid] | 100% | 1300 nM |
| CC1(C)CCC(C)(C)c2cc(C(=O)Nc3ccc(Br)cc3)c(C(=O)O)cc21 [Compound 10, 3-{[(4-Bromophenyl)amino]carbonyl}-5,5,8,8-tetramethyl-5,6,7,8-tetrahydronaphthalene-2-carboxylic acid] | 58% | 1560 nM |
| CC1(C)CC(C(=O)Nc2ccc(Br)cc2)=C(C(=O)O)c2ccccc21 [Compound 3, 2-{[(4-Bromophenyl)amino]carbonyl}-4,4-dimethyl-3,4-dihydronaphthalene-1-carboxylic acid] | 95% | 87 nM |
| O=C(O)c1cc2ccccc2cc1C(=O)Nc1ccc(Br)cc1 [Compound 9, 3-{[(4-Bromophenyl)amino]carbonyl}-2-naphthoic acid] | 92% | 5930 nM |
| CCc1cc(C(=O)Nc2ccc(Br)cc2)c(C(=O)O)c2ccccc12 [Compound 12, 2-{[(4-Bromophenyl)amino]carbonyl}-4-ethyl-1-naphthoic acid] | 95% | 165 nM |
| O=C(O)C1=C(C(=O)Nc2ccc(Br)cc2)CCc2c1cccc2-c1ccccc1 [Compound 5, 2-{[(4-Bromophenyl)amino]carbonyl}-5-phenyl-3,4-dihydronaphthalene-1-carboxylic acid] | 100% | 566 nM |
| Cc1ccc(C)c2c1CCC(C(=O)Nc1ccc(Br)cc1)=C2C(=O)O [Compound 8, 2-{[(4-Bromophenyl)amino]carbonyl}-5,8-dimethyl-3,4-dihydronaphthalene-1-carboxylic acid] | 93% | 198 nM |

Now from value to molecule:

| Emax | EC50 | Compound |
| --- | --- | --- |
| 81% | 777 nM | O=C(O)C1=C(C(=O)Nc2ccc(Br)cc2)CCc2ccc(Cl)cc21 [Compound 4, 2-{[(4-Bromophenyl)amino]carbonyl}-7-chloro-3,4-dihydronaphthalene-1-carboxylic acid] |
| 90% | 383 nM | O=C(O)C1=C(C(=O)Nc2ccc(Br)cc2)CCc2ccccc21 [Compound 6, 2-{[(4-Bromophenyl)amino]carbonyl}-3,4-dihydronaphthalene-1-carboxylic acid] |
| 80% | 756 nM | CC(C)c1cccc2c1CCC(C(=O)Nc1ccc(Br)cc1)=C2C(=O)O [Compound 1, 2-{[(4-Bromophenyl)amino]carbonyl}-5-isopropyl-3,4-dihydronaphthalene-1-carboxylic Acid] |
| 95% | 3920 nM | Cc1cc(C)c2c(c1)C(C(=O)O)=C(C(=O)Nc1ccc(Br)cc1)CC2 [Compound 7, 2-{[(4-Bromophenyl)amino]carbonyl}-5,7-dimethyl-3,4-dihydronaphthalene-1-carboxylic acid] |
| 86% | 1320 nM | CC(C)(C)c1ccc2c(c1)C(C(=O)O)=C(C(=O)Nc1ccc(Br)cc1)CC2 [Compound 2, 2-{[(4-Bromophenyl)amino]carbonyl}-7-tert-butyl-3,4-dihydronaphthalene-1-carboxylic acid] |
